Laboratory results as given in patent publication US4820821A, “Novel pyridazinone-imines and their physiologically tolerated addition salts with acids, their preparation and therapeutic agents containing these compounds” (BASF Aktiengesellschaft, priority 1981, dated 1989).
Where a name gives a salt, the structure may show the parent alone. Read-outs that look alike come from different tables or passages of the source.

Legend:
[1] = tested on: reserpine-induced hypothermia; assay: Antidepressive action: reserpine antagonism, inhibition of reserpine-induced hypothermia of the mouse; assay type: in vivo, male Swiss mice; conditions: for ED50: Mus musculus, dose based on the base, read-out: ED 50% (dose which inhibits the reserpine-induced hypothermia of the mouse by 50%); for R.A. (relative activity), reserpine antagonism: amezinium = 1.00, oral
Method: Antidepressants effect dose-dependent inhibition of this hypotherma. The test substances are administered orally 60 minutes before the administration of reserpine.
The dose which effects 50% inhibition of the reserpine-induced hypothermia is determined, as the ED 50%, from the linear regression between log dose (mg/kg) and relative reduction in hypothermia (Δ%).

blood pressure = assay: Effect on the blood pressure: hypertensive action, pithed rat; assay type: in vivo, male Sprague-Dawley rats; conditions: for ED20: Rattus norvegicus, dose based on the base, read-out: ED 20% hypertensive action (dose which increases the blood pressure of the pithed rat by 20%); for R.A. (relative activity), hypertensive action: amezinium = 1.00
Method: The measurement of the blood pressure in the carotid artery was carried out by means of Statham transducers. The substance was administered in the jugular vein (as an aqueous solution, 1 ml/kg) or intraperitoneally (as a tragacanth suspension, 2 ml/kg). The ED 20% is determined as the dose which increases the blood pressure by 20%.

[2] = tested on: reserpine-induced hypothermia / blood pressure; assay: Quotient ED 50% antidepressive action / ED 20% hypertensive action; assay type: in vivo, mouse / rat; conditions: for Q Increase: Table 2, route of hypertensive test not given; for factor by which the quotient of antidepressive action and hypertensive action is smaller than in the case of amezinium: compounds of Table 1;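 on Q Increase: larger quotient means more selective hypertensive action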
Text: This is evident from the fact that the quotient defined above differs wtih respect to the comparative compounds. […] This arises, inter alia, from the fact that the hypertensive ED 20 constitutes the denominator of the quotient. It is possible that the unforeseeable selective direction of action is attributable to the special substitution,in accordance with the invention, at the 4-imino group.

[3] = Table 1, oral administration 60 min before reserpine
[4] = iv, Table 1, i.v. administration
[5] = ip, Table 1, i.p. administration

SMILES | ED50 [1, 3] [mg/kg] | R.A. (relative activity), reserpine antagonism ([1]; Table 1) | ED20 (blood pressure; [4]) [mg/kg] | R.A. (relative activity), hypertensive action (blood pressure; Table 1, i.v. administration) | Q (quotient ED 50% antidepressive action/ED 20% hypertensive action) ([2]; hypertensive test i.v.) | ED20 (blood pressure; [5]) [mg/kg] | R.A. (relative activity), hypertensive action (blood pressure; Table 1, i.p. administration) | Q (quotient ED 50% antidepressive action/ED 20% hypertensive action) ([2]; hypertensive test i.p.) | also measured
O=C(N=c1ccn(-c2ccccc2)nc1)Oc1ccccc1 [Example 30, 1,4-dihydro-4-(phenoxycarbonyl)-imino-1-phenylpyridazine hydrochloride] | – | – | – | – | – | – | – | – | ED50 ([1]; Table 2, oral administration): 4.1 mg/kg; R.A. (relative activity), reserpine antagonism ([1]; Table 2): 0.18; ED20 (blood pressure; Table 2, route not given): 0.034 mg/kg; R.A. (relative activity), hypertensive action (blood pressure; Table 2): 1.47; Q Increase [2]: 120.59; factor by which the hypertensive dose (ED 20%) is smaller than the antidepressive effective dose (ED 50%) ([2]; compounds of Table 2): 120
CNC(=O)N=c1ccn(-c2ccccc2)nc1 [Example 31, 1,4-dihydro-4-(methylcarbamyl)-imino-1-phenylpyridazine] | 0.28 | 2.62 | 1.47 | 0.03 | 0.19 | – | – | – | factor by which the quotient of antidepressive action and hypertensive action is smaller than in the case of amezinium [2]: 77
O=C(N=c1ccn(-c2ccccc2)nc1)OCc1ccccc1 [Example 34] | 0.71 | 1.03 | 0.1 | 0.50 | 7.10 | – | – | – | –
C=CCOC(=O)N=c1ccn(-c2ccccc2)nc1 [Example 35] | 0.25 | 2.93 | 0.1 | 0.50 | 2.50 | – | – | – | –
CCSC(=O)N=c1ccn(-c2ccccc2)nc1 [Example 36] | 2 | 0.37 | 0.316 | 0.16 | 6.33 | – | – | – | –
CC(C)NC(=O)N=c1ccn(-c2ccccc2)nc1 [Example 37] | 0.7 | 1.05 | 1 | 0.05 | 0.70 | – | – | – | –
COc1cc(=NC(C)=O)cnn1-c1ccccc1 [Example 48, 4-acetylimino-1,4-dihydro-6-methoxy-1-phenylpyridazine perchlorate] | 1.1 | 0.67 | – | – | – | 6.81 | 0.05 | 0.16 | –
CCOc1cc(=NC(C)=O)cnn1-c1ccccc1 [Example 49] | 1.71 | 0.43 | – | – | – | 4.64 | 0.08 | 0.37 | –
CCC(=O)N=c1cnn(-c2ccccc2)c(OC)c1 [Example 50] | 0.18 | 4.07 | – | – | – | 3.16 | 0.12 | 0.06 | –
CCCC(=O)N=c1cnn(-c2ccccc2)c(OC)c1 [Example 52] | 1.4 | 0.52 | – | – | – | 3.16 | 0.12 | 0.44 | –
COc1cc(=NC(=O)Oc2ccccc2)cnn1-c1ccccc1 [Example 58, 1,4-dihydro-6-methoxy-4-(phenoxycarbonyl)-imino-1-phenylpyridazine] | – | – | – | – | – | – | – | – | ED50 ([1]; Table 2, oral administration): 5.62 mg/kg; R.A. (relative activity), reserpine antagonism ([1]; Table 2): 0.13; ED20 (blood pressure; Table 2, route not given): 0.1 mg/kg; R.A. (relative activity), hypertensive action (blood pressure; Table 2): 0.50; Q Increase [2]: 56.20
COc1cc(=NC(=O)c2ccccc2)cnn1-c1ccccc1 [Example 60] | 0.93 | 0.79 | – | – | – | 2.15 | 0.17 | 0.43 | –
COc1cc(OC)cc(C(=O)N=c2cnn(-c3ccccc3)c(OC)c2)c1 [Example 62] | 0.66 | 1.11 | 0.56 | 0.09 | 1.18 | – | – | – | –
COc1cc(=NC(=O)c2ccccc2Cl)cnn1-c1ccccc1 [Example 64] | 1.27 | 0.58 | – | – | – | > 10 | < 0.04 | < 0.13 | –
CCOc1cc(=NC(=O)c2ccccc2Cl)cnn1-c1ccccc1 [Example 65] | – | – | – | – | – | – | – | – | ED50 ([1]; Table 2, oral administration): > 31.6 mg/kg; R.A. (relative activity), reserpine antagonism ([1]; Table 2): < 0.02; ED20 (blood pressure; Table 2, route not given): 0.53 mg/kg; R.A. (relative activity), hypertensive action (blood pressure; Table 2): 0.09; Q Increase [2]: > 59.62
COc1cc(=NC(=O)c2ccc(Cl)cc2)cnn1-c1ccccc1 [Example 66] | 1.8 | 0.41 | – | – | – | > 10 | < 0.04 | < 0.18 | –
COc1cc(=NC(=O)c2ccc(Cl)cc2Cl)cnn1-c1ccccc1 [Example 68] | 0.95 | 0.77 | – | – | – | > 21.5 | < 0.02 | < 0.04 | –
CCOC(=O)N=c1cnn(-c2ccccc2)c(OC)c1 [Example 69] | 4.86 | 0.15 | 2.15 | 0.02 | 2.26 | – | – | – | –
CCCCOC(=O)N=c1cnn(-c2ccccc2)c(OC)c1 [Example 71] | 0.76 | 0.96 | 0.464 | 0.11 | 1.64 | – | – | – | –
C=CCOC(=O)N=c1cnn(-c2ccccc2)c(OC)c1 [Example 72] | 1.47 | 0.50 | 0.464 | 0.11 | 3.17 | – | – | – | –
CCSC(=O)N=c1cnn(-c2ccccc2)c(OC)c1 [Example 73] | 1.23 | 0.60 | – | – | – | > 10 | < 0.04 | < 0.12 | –
COc1cc(=NC(=O)NCc2ccccc2)cnn1-c1ccccc1 [Example 74] | 8.45 | 0.09 | 4.64 | 0.01 | 1.82 | – | – | – | –
COc1cc(=NC(=O)c2cccc(C(F)(F)F)c2)cnn1-c1ccccc1 [Example 77] | 3.4 | 0.22 | – | – | – | 3.16 | 0.12 | 1.08 | –
COc1cc(=NC(=O)c2ccc(C)cc2)cnn1-c1ccccc1 [Example 78] | 0.73 | 1.00 | – | – | – | 10 | 0.04 | 0.07 | –
COc1cc(=NC(=O)c2ccc(F)cc2)cnn1-c1ccccc1 [Example 79] | 1.14 | 0.64 | – | – | – | 10 | 0.04 | 0.11 | –
COc1cc(=NC(=O)c2ccc(Cl)c(Cl)c2)cnn1-c1ccccc1 [Example 80] | 1.5 | 0.49 | – | – | – | > 10 | < 0.04 | < 0.15 | –
CCNC(=O)N=c1ccn(-c2ccccc2)nc1 [Example 84, 1,4-dihydro-4-(ethylcarbamyl)-imino-1-phenylpyridazine] | 0.37 | 1.98 | 0.464 | 0.11 | 0.80 | – | – | – | –
CCCNC(=O)N=c1ccn(-c2ccccc2)nc1 [Example 85, 1,4-dihydro-1-phenyl-4-[(propylcarbamyl)-imino]-pyridazine] | 0.28 | 2.62 | 1 | 0.05 | 0.28 | – | – | – | factor by which the quotient of antidepressive action and hypertensive action is smaller than in the case of amezinium [2]: 52
CNC(=S)N=c1ccn(-c2ccccc2)nc1 [Example 86, 1,4-dihydro-4-(methylthiocarbamyl)-imino-1-phenylpyridazine] | 2.1 | 0.35 | > 1 | < 0.05 | < 2.1 | – | – | – | –
